pIC50: −log10 of the molar value. Like-named read-outs stand apart in the source and are kept apart here.
Columns and labels:
ACC1 = ACC1 (Homo sapiens (Human), UniProt Q13085); assay: ACC1 enzyme activity assay (ADP-Glo); type: biochemical; settings: ACC1 enzyme 2 nM working solution, room temperature
Experimental: (§1) Compound preparation: the compounds of the present disclosure prepared in the above examples and the control compound were respectively formulated into 10 mM with DMSO for use.
(§2) Preparation of 1× reaction buffer (pH=7.4): HEPES stock solutions (1 M), MgCl2 (1 M), BRIJ-35 (10%), potassium citrate buffer (1 M), BSA (10 mg/mL) and DTT (500 mM) were formulated to enzyme reaction buffer containing HEPES (50 mM), MgCl2 (2 mM), BRIJ-35 (0.01%), potassium citrate buffer (2 mM), BSA (50 Gg/mL) and DTT (2 mM).
4.5 μL of 2.2×ACC1 enzyme (2 nM) working solution was added to a 384-well plate; and then 0.5 μL of different concentrations of compound were added. The mixture was incubated at room temperature for 15 min.
(§3) Negative control group: menstruum containing 5% DMSO; positive control group: menstruum containing 100 nM ND-630. The average values of each concentration and the positive and negative controls were calculated, and the standard deviation was calculated. […] The inhibition rate data was fitted by nonlinear regression equation to calculate IC50 of each compound. The nonlinear regression equation was Y=lowest value+(highest value−lowest value)/(1+10^((Log IC50−X)×HillSlope)), among which X is logarithm of the compound concentration and Y is inhibition percent (%).

[1] = Evaluation of compound distribution in rat liver; type: in vivo; settings: male SD rats, single oral 3 mg/kg, 0.25 h after administration; for Kp at 0.25 h: liver/plasma, read-out: Liver/plasma distribution ratio
Experimental: An acclimation period of 2-3 days was given before the experiments. The rats were fasted for 8-12 h before administration, supplied with water 2 h after administration and foods 4 h after administration.
6 mg of the test compound (based on free base) was weighed and added to 20 mL of ethanol-PEG400-saline (10:30:60). The mixture was vortexed for 2 min, and sonicated for 3 min, and then used to prepare a solution of test sample solution with a concentration of 0.3 mg/mL for oral administration. 100 μL of the test sample solution was volumed to 10 ng/mL with methanol, and a control sample of the same concentration was prepared. The concentrations of the test sample and control sample were detected by HPLC, and the accuracy was calculated.
SD rats were given a single oral administration of 3 mg/kg of test compound at a dose of 10 mL/kg. The rats were bled in femoral artery and ruptured in neck 0.25 h after administration. The liver and blood samples (anticoagulation with heparin sodium) were collected immediately, and placed on ice.
The homogenate was centrifuged (centrifugation conditions: 8000 rpm/min, 5 min, 4° C.). The supernatant was transferred and subjected to cryopreservation. The supernatant was thawed and centrifuged before injection, and the supernatant was collected and subjected to LC-MS/MS for analyzing the content of the compound in the supernatant sample.
The collected whole blood sample was placed on ice and centrifuged within 30 min (centrifugation conditions: 8000 rpm/min, 5 min, 4° C.). 100 μL of the upper layer of plasma was transferred, and precipitated with 300 μL of methanol. The mixture was shaken and centrifuged, and diluted with mobile phase. The supernatant was collected and subjected to LC-MS/MS for analyzing the content of the compound in the supernatant sample.

ACC2 = ACC2 (Homo sapiens (Human), UniProt O00763); assay: ACC2 enzyme activity assay (ADP-Glo); type: biochemical; settings: ACC2 enzyme 1.1 nM working solution, room temperature
Experimental: as §1, §2
The mixture was incubated at room temperature for 15 min.
as §3

[2] = tested on: Col1A1 gene expression in TGF-β1-induced LX-2 cells; assay: Inhibition of human hepatic stellate cells LX-2 activation in vitro (Col1A1 gene expression, real-time PCR); type: cell-based; settings: TGFβ1 10 ng/mL, 24 h drug treatment, compound concentration of the tabulated value not stated (30, 10, 3 μM prepared)
Experimental: The compounds of the present disclosure prepared in the above examples and the control compound were respectively formulated into 60 mM with DMSO for use.
DMSO stock solution of the compounds of the examples of the present disclosure and the control compound were sequentially diluted with culture medium to 30 μM, 10 μM, and 3 μM. TGF-β1 was dissolved to […] with 10 mM citric acid buffer in the kit (PeproTech) according to the instructions, ready for use.
LX-2 cells were inoculated into a 6-well culture plate at a density of 2×10^5 cells/mL after cell passage. Each well contained 2 mL DMEM with 10% FBS. The cells were cultured at 37° C. in a 5% CO2 incubator, which was recorded as Day 1. After 24 h (Day 2), the cell confluence reached 70-80%, the old culture medium was discarded, and the serum-free DMEM was used to treat the cells as low serum starvation. The old culture medium was discarded at Day 3, and the culture medium or the culture medium containing different concentrations of the drug was added for continuing culture. There were control group (serum-free DMEM culture medium), TGFβ1 group, TGFβ1+ compound group. The TGFβ1 working concentration was 10 ng/mL. 24 h after the drug treatment (Day 4), the cell medium was discarded and the cells were washed once with precooled 1×PBS and then subjected to total RNA extraction.
2.3.1 Sample pretreatment: 1 mL of TransZOL Up reagent was added to each well of the 6-well plate, and the well plate was placed horizontally for a while to let the lysis buffer evenly spread on the cell surface and lyse the cells. The cells were blown with a pipette to make the cells completely detached. The lysate was transferred to a 2 mL RNase free centrifuge tube and repeatedly blown and sucked until no significant pieces in the lysate.
The extracted RNA was diluted to a concentration of 0.1 μg-0.5 μg (Total RNA ≤1 μg) based on the same mass. The total RNA in the reverse transcription system of each sample in the experiment was about 500 ng.
Two replicates were set for each sample, and the relative expression of the target gene was calculated by the program in the PCR machine.
The threshold of the Real Time PCR result was automatically set by the Real Time PCR detector system. The relative expression of the Col1A1 gene was calculated as follows. ΔCt (Col1A1 in drug treatment group)=Avg. Ct (Col1A1 in drug treatment group)−Avg. Ct (GAPDH in drug treatment group) ΔCt (Col1A1 in TGF group)=Avg. Ct (Col1A1 in TGF group)−Avg. Ct (GAPDH in TGF group) ΔCt (Col1A1 in Control group)=Avg. Ct (Col1A1 in Control group)−Avg. Ct (GAPDH in Control group) ΔΔCt=Average value of ΔCt (Col1A1 in TGF group/drug treatment group)−ΔCt (Col1A1 in Control group)
Formula for calculating the relative expression of Col1A1 gene: RQ=^2−ΔΔCt
Relative quantification results were obtained by automatically analysis of ABI 7500 real-time quantitative PCR machine.

[3] = liver, read-out: Concentration in Liver
[4] = plasma, read-out: Concentration in Plasma

Chain of ACC2 (O00763 whole entry): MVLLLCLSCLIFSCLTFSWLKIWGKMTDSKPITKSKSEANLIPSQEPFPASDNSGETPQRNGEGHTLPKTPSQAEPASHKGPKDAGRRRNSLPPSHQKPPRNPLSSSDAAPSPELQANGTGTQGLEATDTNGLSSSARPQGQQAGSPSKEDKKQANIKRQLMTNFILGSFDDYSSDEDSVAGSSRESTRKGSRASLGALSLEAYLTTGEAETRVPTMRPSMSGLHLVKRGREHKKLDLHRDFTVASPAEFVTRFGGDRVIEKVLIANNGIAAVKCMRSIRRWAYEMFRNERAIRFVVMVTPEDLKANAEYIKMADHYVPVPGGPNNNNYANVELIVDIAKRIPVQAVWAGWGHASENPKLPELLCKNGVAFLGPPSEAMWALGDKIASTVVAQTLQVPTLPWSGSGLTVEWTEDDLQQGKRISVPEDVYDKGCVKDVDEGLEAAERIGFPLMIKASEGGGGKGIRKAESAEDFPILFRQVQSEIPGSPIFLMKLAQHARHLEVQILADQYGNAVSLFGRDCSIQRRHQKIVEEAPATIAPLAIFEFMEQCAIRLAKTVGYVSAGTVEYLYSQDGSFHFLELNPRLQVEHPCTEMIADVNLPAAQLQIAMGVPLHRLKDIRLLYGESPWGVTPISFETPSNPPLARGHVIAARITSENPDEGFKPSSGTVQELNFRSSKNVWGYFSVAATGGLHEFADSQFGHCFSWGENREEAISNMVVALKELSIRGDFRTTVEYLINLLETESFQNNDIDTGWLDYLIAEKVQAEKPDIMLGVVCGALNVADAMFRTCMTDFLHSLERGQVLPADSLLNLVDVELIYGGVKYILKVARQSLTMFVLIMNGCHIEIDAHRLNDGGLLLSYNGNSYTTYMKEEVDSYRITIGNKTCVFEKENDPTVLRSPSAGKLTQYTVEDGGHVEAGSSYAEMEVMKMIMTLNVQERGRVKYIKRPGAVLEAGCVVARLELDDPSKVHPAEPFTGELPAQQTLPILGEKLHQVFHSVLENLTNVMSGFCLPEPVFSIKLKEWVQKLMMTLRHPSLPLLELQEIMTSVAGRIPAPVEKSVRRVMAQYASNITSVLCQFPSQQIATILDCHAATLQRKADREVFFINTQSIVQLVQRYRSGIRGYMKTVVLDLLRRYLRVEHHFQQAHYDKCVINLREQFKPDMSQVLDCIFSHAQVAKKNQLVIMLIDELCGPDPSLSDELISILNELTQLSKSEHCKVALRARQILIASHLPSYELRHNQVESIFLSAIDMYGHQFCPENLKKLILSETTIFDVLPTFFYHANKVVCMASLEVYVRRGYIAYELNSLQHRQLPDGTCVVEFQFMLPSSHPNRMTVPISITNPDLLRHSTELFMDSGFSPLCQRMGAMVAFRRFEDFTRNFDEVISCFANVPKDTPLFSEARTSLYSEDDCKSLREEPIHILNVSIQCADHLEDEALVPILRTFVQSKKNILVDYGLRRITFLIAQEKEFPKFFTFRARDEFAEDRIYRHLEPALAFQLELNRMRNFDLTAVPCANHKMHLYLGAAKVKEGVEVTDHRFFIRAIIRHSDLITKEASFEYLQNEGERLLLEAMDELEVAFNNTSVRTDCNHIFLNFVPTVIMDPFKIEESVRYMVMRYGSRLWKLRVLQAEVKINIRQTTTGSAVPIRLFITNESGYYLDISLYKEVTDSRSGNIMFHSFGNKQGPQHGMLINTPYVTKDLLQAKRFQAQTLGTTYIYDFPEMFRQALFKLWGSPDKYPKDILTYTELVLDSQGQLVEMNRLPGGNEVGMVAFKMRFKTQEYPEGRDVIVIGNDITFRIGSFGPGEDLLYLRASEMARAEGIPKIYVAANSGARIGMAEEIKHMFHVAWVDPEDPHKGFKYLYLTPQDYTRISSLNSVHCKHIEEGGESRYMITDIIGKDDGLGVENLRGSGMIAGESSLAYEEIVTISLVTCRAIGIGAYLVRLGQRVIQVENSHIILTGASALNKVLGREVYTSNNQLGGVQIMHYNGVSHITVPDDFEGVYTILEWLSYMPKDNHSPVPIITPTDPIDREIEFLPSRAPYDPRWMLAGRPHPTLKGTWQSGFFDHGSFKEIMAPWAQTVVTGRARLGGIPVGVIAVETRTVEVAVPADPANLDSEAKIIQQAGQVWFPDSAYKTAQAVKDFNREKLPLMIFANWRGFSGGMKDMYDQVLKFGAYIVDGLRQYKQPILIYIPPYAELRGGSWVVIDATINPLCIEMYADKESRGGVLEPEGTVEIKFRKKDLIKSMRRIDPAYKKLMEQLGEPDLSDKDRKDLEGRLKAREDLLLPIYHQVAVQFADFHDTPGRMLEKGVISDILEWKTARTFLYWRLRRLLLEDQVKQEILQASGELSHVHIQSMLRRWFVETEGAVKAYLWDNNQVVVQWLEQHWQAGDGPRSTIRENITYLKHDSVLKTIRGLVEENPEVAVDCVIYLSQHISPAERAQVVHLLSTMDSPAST

| SMILES | pIC50 (ACC1) | concentration at 0.25 h [1, 3] [ng/g] | Kp at 0.25 h [1] | concentration at 0.25 h [1, 4] [ng/mL] | pIC50 (ACC2) | Inhibition rate (%) of relative expression of the Col1A1 gene [2] [%] |
| --- | --- | --- | --- | --- | --- | --- |
| COc1ccccc1[C@H](Cn1c(=O)n(-c2cccc(C3(C(=O)O)CC3)c2)c(=O)c2c(C)c(-c3ncco3)sc21)OC1CCOCC1 [Example 56] |  |  |  |  |  | 105.01 |
| COc1ccccc1[C@H](Cn1c(=O)n(-c2ccc(C(=O)O)cc2)c(=O)c2c(C)c(-c3ncco3)sc21)OC1CCOCC1 [Example 24a, (R)-4-(1-(2-(2-methoxyphenyl)-2-((tetrahydro-2H-pyran-4-yl)oxy)ethyl)-5-methyl-6-(oxazol-2-yl)-2,4-dioxo-1,4-dihydrothieno[2,3-d]pyrimidin-3(2H)-yl)benzoic Acid] |  |  |  |  |  | 24.50 |
| COc1ccccc1C(Cn1c(=O)n(C2CC(C(=O)O)C2)c(=O)c2c(C)c(-c3ncco3)sc21)OC1CCOCC1 (stereo not shown) [Example 1, 3-(1-(2-(2-methoxyphenyl)-2-((tetrahydro-2H-pyran-4-yl)oxy)ethyl)-5-methyl-6-(oxazol-2-yl)-2,4-dioxo-1,4-dihydrothieno[2,3-d]pyrimidin-3(2H)-yl)cyclobutane-1-carboxylic Acid] | 9.16 | 4180 | 144 | 29.1 | 8.29 |  |
| COc1ccccc1[C@H](Cn1c(=O)n([C@H]2C[C@@](C)(C(=O)O)C2)c(=O)c2c(C)c(-c3ncco3)sc21)OC1CCOCC1 [Example 4, (1S,3s)-3-(1-((R)-2-(2-methoxyphenyl)-2-((tetrahydro-2H-pyran-4-yl)oxy)ethyl)-5-methyl-6-(oxazol-2-yl)-2,4-dioxo-1,4-dihydrothieno[2,3-d]pyrimidine-3(2H)-yl)-1-methylcyclobutanecarboxylic Acid] | 9.17 | 4830 | 67.1 | 72.8 | 8.50 | 78.54 |
| COc1ccccc1C(Cn1c(=O)n(C(C)(C)C(=O)O)c(=O)c2c(C)c(-c3ncco3)sc21)OC1CCN(C(C)=O)CC1 (stereo not shown) [Example 20, 2-(1-(2-((1-acetylpiperidin-4-yl)oxy)-2-(2-methoxyphenyl)ethyl)-5-methyl-6-(oxazol-2-yl)-2,4-dioxo-1,4-dihydrothieno[2,3-d]pyrimidin-3(2H)-yl)-2-methylpropionic Acid] | 9.04 |  |  |  | 8.10 |  |

Second part, led by results:

| pIC50 (ACC1) | concentration at 0.25 h [1, 3] [ng/g] | Kp at 0.25 h [1] | concentration at 0.25 h [1, 4] [ng/mL] | pIC50 (ACC2) | SMILES | Inhibition rate (%) of relative expression of the Col1A1 gene [2] [%] |
| --- | --- | --- | --- | --- | --- | --- |
| 8.65 | 1460 | 75.5 | 19.3 | 7.91 | COc1ccccc1C(Cn1c(=O)n(C2CN(C(C)=O)C2)c(=O)c2c(C)c(-c3ncco3)sc21)OC1CCOCC1 (stereo not shown) [Example 7] |  |
| 8.51 | 3170 | 65.3 | 48.5 | 8.29 | COc1ccccc1C(Cn1c(=O)n(-c2ccc(C(=O)O)cc2)c(=O)c2c(C)c(-c3ncco3)sc21)OC1CCOCC1 (stereo not shown) [Example 24, 4-(1-(2-(2-methoxyphenyl)-2-((tetrahydro-2H-pyran-4-yl)oxy)ethyl)-5-methyl-6-(oxazol-2-yl)-2,4-dioxo-1,4-dihydrothieno[2,3-d]pyrimidin-3(2H)-yl)benzoic Acid] |  |
| 8.80 | 3200 | 151 | 21.2 | 8.12 | COc1ccccc1C(Cn1c(=O)n(-c2cccc(C(=O)O)c2)c(=O)c2c(C)c(-c3ncco3)sc21)OC1CCOCC1 (stereo not shown) [Example 25, 3-(1-(2-(2-methoxyphenyl)-2-((tetrahydro-2H-pyran-4-yl)oxy)ethyl)-5-methyl-6-(oxazol-2-yl)-2,4-dioxo-1,4-dihydrothieno[2,3-d]pyrimidin-3(2H)-yl)benzoic Acid] | 62.94 |
